How the values were obtained:
Experiment in all cases: relative viability (nuclei count vs DMSO), 5 days (fraction); higher = more cells survive
[1] = compound: CCCS(=O)(=O)Nc1ccc(F)c(C(=O)c2c[nH]c3ncc(-c4ccc(Cl)cc4)cc23)c1F [Vemurafenib] + CC(=O)c1c(C)c2cnc(Nc3ccc(N4CCNCC4)cn3)nc2n(C2CCCC2)c1=O [Palbociclib] (partner 0.5 µM)
Outline: (§1)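 Lung cancer cell lines were pin-tool dosed in 1536-well plates on the day after seeding, with either a lone drug or a fixed anchor-drug dose plus five library-drug doses (not always all listed) in √10 steps. Nuclei were counted on 4× images after 5 days. Relative viability is the ratio of treated-well to vehicle-well nuclei counts, with each value a median of duplicate plates.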

Vemurafenib + Dasatinib = compound: CCCS(=O)(=O)Nc1ccc(F)c(C(=O)c2c[nH]c3ncc(-c4ccc(Cl)cc4)cc23)c1F [Vemurafenib] + Cc1nc(Nc2ncc(C(=O)Nc3c(C)cccc3Cl)s2)cc(N2CCN(CCO)CC2)n1 [Dasatinib] (partner 0.075 µM)
Outline: as §1

OSI-027 + Lapatinib = compound: COc1cccc2cc(-c3nc([C@H]4CC[C@H](C(=O)O)CC4)n4ncnc(N)c34)[nH]c12 [OSI-027] + CS(=O)(=O)CCNCc1ccc(-c2ccc3ncnc(Nc4ccc(OCc5cccc(F)c5)c(Cl)c4)c3c2)o1 [Lapatinib] (partner 2 µM)
Outline: as §1

OSI-027 + Phenformin = compound: COc1cccc2cc(-c3nc([C@H]4CC[C@H](C(=O)O)CC4)n4ncnc(N)c34)[nH]c12 [OSI-027] + N=C(N)NC(=N)NCCc1ccccc1 [Phenformin] (partner 250 µM)
Outline: as §1

Cell Line | relative viability ([1]; first compound 0.03162 µM) | relative viability ([1]; first compound 0.1 µM) | relative viability ([1]; first compound 0.3162 µM) | relative viability ([1]; first compound 1 µM) | relative viability (Vemurafenib + Dasatinib; first compound 0.03162 µM) | relative viability (Vemurafenib + Dasatinib; first compound 0.1 µM) | relative viability (Vemurafenib + Dasatinib; first compound 0.3162 µM) | relative viability (Vemurafenib + Dasatinib; first compound 1 µM) | relative viability (OSI-027 + Lapatinib; first compound 0.01 µM) | relative viability (OSI-027 + Lapatinib; first compound 0.03162 µM) | relative viability (OSI-027 + Lapatinib; first compound 0.1 µM) | relative viability (OSI-027 + Lapatinib; first compound 0.3162 µM) | relative viability (OSI-027 + Lapatinib; first compound 1 µM) | relative viability (OSI-027 + Phenformin; first compound 0.01 µM) | relative viability (OSI-027 + Phenformin; first compound 0.03162 µM) | relative viability (OSI-027 + Phenformin; first compound 0.1 µM) | relative viability (OSI-027 + Phenformin; first compound 0.3162 µM) | relative viability (OSI-027 + Phenformin; first compound 1 µM)
NCI-H3122 | 0.177 | 0.172 | 0.206 | 0.178 | 0.652 | 0.598 | 0.841 | 0.712 | 1.09 | 1.1 | 1.14 | 1.05 | 0.808 | 0.409 | 0.41 | 0.454 | 0.443 | 0.288
NCI-H1299 | – | – | – | – | – | – | – | – | 1.02 | 1.04 | 1.04 | 1.01 | 0.645 | – | – | – | – | –
LK-2 | 0.621 | 0.599 | 0.602 | 0.311 | 0.306 | 0.306 | 0.33 | 0.223 | 0.861 | 0.789 | 0.609 | 0.385 | 0.268 | 0.437 | 0.344 | 0.328 | 0.155 | 0.275
HCC-15 | 0.717 | 0.689 | 0.673 | 0.775 | 0.551 | 0.67 | – | 0.726 | 0.872 | 0.849 | 0.819 | 0.763 | 0.529 | 0.465 | 0.458 | 0.45 | 0.389 | 0.279
IA-LM | – | – | – | – | – | – | – | – | 0.765 | 0.697 | 0.499 | 0.193 | 0.223 | – | – | – | – | –
NCI-H1755 | 0.459 | 0.43 | 0.431 | 0.434 | 0.396 | 0.406 | 0.243 | 0.43 | 1.01 | 1.06 | 1.01 | 0.817 | 0.579 | 0.615 | 0.696 | 0.594 | 0.569 | 0.451
EMC-BAC-2 | 0.491 | 0.416 | 0.407 | 0.468 | 0.175 | 0.28 | 0.209 | 0.337 | 0.843 | 0.874 | 0.838 | 0.7 | 0.516 | 0.513 | 0.543 | 0.466 | 0.385 | 0.263
NCI-H838 | 0.213 | 0.236 | 0.177 | 0.343 | 0.256 | 0.22 | – | 0.325 | 0.937 | 0.975 | 0.868 | 0.584 | 0.377 | 0.588 | 0.62 | 0.479 | 0.339 | 0.28
NCI-H1650 | 0.314 | 0.255 | 0.356 | 0.351 | – | 0.301 | – | 0.305 | 0.76 | 0.725 | 0.643 | 0.646 | 0.392 | 0.37 | 0.366 | 0.444 | 0.378 | 0.253
NCI-H1975 | 0.553 | 0.471 | 0.41 | 0.382 | 0.359 | 0.339 | 0.206 | 0.378 | 0.897 | 0.864 | 0.958 | 0.688 | 0.401 | 0.435 | 0.412 | 0.379 | 0.363 | 0.298
NCI-H522 | 0.822 | 0.743 | 0.857 | 1.26 | 1.08 | 0.718 | 0.875 | 0.855 | – | – | – | – | – | 0.72 | 0.57 | 0.583 | 0.506 | 0.508

Reference: the supplement of paper PMC10307832
